Data reported in ChEMBL document CHEMBL2057199, “Development of novel M1 antagonist scaffolds through the continued optimization of the MLPCN probe ML012” (Bioorg Med Chem Lett, 2012).
Calls of active or inactive are those of the source. The calls are words filed in the database; no cut-off is given here.

Experiments:
[1] = Plasma clearance in iv dosed rat; format: ADME, organism-based
[2] = biological target: T1, Muscarinic acetylcholine receptor M5 (Homo sapiens, UniProt P08912); experiment: Antagonist activity at human muscarinic M5 receptor assessed as inhibition of acetylcholine-induced calcium mobilization; format: functional
T1 sequence (P08912 whole entry): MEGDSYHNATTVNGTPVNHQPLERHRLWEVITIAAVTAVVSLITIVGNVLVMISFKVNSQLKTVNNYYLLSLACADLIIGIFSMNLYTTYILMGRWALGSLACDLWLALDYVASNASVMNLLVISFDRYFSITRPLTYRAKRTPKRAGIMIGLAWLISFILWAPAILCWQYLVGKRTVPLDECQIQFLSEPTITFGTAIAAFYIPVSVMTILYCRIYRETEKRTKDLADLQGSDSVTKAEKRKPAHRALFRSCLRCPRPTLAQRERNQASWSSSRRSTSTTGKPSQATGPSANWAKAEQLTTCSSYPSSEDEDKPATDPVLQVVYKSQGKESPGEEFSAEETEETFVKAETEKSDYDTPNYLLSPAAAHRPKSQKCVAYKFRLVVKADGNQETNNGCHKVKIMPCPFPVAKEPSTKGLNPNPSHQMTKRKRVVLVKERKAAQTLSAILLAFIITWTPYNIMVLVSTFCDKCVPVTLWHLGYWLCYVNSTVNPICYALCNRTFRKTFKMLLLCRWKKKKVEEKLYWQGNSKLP

[3] = biological target: T2, Muscarinic acetylcholine receptor M1 (Homo sapiens) (UniProt P11229); experiment: Displacement of [3H]NMS from human muscarinic M1 receptor
T2 sequence (whole entry): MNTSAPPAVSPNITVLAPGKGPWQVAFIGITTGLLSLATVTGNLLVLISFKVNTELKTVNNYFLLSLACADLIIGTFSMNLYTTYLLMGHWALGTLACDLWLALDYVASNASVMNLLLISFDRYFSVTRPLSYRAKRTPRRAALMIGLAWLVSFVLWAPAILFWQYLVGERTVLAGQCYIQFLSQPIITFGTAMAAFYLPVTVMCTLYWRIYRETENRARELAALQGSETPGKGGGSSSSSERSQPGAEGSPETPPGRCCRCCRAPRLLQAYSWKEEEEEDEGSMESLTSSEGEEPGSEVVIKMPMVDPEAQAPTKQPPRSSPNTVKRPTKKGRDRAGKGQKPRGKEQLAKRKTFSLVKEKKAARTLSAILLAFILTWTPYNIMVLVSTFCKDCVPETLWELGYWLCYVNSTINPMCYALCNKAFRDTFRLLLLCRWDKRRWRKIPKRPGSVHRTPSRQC

[4] = biological target: T3, Cytochrome P450 1A2 (Homo sapiens, UniProt P05177); experiment: Inhibition of CPY1A2
T3 sequence (P05177 whole entry): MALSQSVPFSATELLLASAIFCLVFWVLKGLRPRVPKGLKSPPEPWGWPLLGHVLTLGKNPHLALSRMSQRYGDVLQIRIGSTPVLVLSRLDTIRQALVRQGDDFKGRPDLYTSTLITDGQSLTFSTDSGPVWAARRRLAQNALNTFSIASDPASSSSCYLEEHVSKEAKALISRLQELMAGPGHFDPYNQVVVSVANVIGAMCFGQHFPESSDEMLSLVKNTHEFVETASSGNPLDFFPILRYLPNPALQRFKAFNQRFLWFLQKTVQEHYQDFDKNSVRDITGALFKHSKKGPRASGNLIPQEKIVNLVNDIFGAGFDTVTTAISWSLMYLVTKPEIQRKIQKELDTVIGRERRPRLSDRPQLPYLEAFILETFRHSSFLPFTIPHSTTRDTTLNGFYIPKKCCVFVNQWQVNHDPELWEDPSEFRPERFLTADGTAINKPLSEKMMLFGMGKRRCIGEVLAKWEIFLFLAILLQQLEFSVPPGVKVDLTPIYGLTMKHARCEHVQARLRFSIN

[5] = system: Brain; experiment: Fraction unbound in rat brain homogenate; format: ADME, tissue-based
[6] = biological target: T4, Muscarinic acetylcholine receptor M4 (Homo sapiens, UniProt P08173); experiment: Antagonist activity at human muscarinic M4 receptor assessed as inhibition of acetylcholine-induced calcium mobilization; format: functional
T4 sequence (P08173 whole entry): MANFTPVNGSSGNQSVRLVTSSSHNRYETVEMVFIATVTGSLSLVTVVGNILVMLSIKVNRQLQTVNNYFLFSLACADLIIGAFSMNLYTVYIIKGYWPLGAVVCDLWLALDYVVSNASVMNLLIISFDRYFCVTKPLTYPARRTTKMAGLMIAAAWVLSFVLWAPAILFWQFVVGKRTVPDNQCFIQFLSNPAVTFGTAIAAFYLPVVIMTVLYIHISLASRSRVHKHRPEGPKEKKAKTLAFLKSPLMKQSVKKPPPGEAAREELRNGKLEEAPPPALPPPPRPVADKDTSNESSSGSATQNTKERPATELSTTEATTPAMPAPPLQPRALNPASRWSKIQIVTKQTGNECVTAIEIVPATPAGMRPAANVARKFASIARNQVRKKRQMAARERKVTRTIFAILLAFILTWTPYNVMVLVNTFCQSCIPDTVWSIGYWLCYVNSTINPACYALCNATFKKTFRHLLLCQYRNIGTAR

[7] = biological target: T2, Muscarinic acetylcholine receptor M1 (Homo sapiens); experiment: Antagonist activity at human muscarinic M1 receptor assessed as rightward shift in acetylcholine concentration response curve; format: functional
[8] = system: Plasma; experiment: Fraction unbound in human plasma; format: ADME, cell-free
[9] = biological target: Cytochrome P450 2D6 (Homo sapiens, UniProt P10635); experiment: Inhibition of CPY2D6
Chain of Cytochrome P450 2D6 (P10635 whole entry): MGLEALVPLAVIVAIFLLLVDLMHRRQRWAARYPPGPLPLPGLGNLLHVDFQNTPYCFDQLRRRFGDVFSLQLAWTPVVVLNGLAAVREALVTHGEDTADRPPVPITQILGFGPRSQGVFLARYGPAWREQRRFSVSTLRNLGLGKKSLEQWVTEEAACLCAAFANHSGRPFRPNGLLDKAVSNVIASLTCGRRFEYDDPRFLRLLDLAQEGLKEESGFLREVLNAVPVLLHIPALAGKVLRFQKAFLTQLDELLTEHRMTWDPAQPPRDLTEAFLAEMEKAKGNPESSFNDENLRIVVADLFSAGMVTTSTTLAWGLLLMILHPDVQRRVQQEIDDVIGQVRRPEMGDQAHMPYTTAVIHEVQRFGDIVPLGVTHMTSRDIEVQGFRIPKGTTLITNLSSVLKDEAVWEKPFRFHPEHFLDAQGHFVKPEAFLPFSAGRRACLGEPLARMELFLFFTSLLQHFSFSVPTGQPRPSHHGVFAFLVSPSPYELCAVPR

[10] = biological target: T2, Muscarinic acetylcholine receptor M1 (Homo sapiens); experiment: (§1) Antagonist activity at human muscarinic M1 receptor expressed in CHO cells assessed as inhibition of acetylcholine-induced calcium mobilization by fluorescence analysis; format: functional, cell-based
[11] = biological target: T5, Muscarinic acetylcholine receptor M1 (Homo sapiens, UniProt P11229); experiment: as §1; format: functional, cell-based; conditions: read-out: IC50
T5 sequence (P11229 whole entry): T2 sequence (whole entry)

[12] = biological target: T6, Muscarinic acetylcholine receptor M2 (Homo sapiens, UniProt P08172); experiment: Antagonist activity at human muscarinic M2 receptor assessed as inhibition of acetylcholine-induced calcium mobilization; format: functional
T6 sequence (P08172 whole entry): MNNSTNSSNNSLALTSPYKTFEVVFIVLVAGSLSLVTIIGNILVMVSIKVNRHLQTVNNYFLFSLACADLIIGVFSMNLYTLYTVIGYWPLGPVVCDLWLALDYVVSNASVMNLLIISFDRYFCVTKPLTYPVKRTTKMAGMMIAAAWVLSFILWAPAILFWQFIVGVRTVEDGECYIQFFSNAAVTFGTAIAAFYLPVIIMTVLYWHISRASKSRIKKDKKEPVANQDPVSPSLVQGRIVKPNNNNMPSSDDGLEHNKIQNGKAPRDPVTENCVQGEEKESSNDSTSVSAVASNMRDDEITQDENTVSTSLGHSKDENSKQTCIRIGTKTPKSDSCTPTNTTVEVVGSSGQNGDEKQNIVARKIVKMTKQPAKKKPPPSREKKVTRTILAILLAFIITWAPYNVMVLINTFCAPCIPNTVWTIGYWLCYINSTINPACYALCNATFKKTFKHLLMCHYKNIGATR

[13] = system: Plasma; experiment: Fraction unbound in rat plasma; format: ADME, cell-free
[14] = biological target: Cytochrome P450 3A4 (Homo sapiens, UniProt P08684); experiment: Inhibition of CPY3A4
Chain of Cytochrome P450 3A4 (P08684 whole entry): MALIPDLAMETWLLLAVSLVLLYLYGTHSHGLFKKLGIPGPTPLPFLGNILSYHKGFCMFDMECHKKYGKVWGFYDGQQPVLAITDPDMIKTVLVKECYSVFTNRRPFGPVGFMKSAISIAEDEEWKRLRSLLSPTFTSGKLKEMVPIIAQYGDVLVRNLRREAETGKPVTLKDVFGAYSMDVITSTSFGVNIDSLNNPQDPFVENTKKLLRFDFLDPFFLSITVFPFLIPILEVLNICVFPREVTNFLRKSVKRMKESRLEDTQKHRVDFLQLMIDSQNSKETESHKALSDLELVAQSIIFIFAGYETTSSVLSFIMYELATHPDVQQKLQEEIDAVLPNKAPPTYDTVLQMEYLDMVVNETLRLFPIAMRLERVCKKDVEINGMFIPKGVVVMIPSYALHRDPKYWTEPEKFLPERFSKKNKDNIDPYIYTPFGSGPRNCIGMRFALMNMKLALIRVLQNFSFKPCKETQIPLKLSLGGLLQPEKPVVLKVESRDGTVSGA

[15] = biological target: Muscarinic acetylcholine receptor M3 (Homo sapiens, UniProt P20309); experiment: Antagonist activity at human muscarinic M3 receptor assessed as inhibition of acetylcholine-induced calcium mobilization; format: functional
Chain of Muscarinic acetylcholine receptor M3 (P20309 whole entry): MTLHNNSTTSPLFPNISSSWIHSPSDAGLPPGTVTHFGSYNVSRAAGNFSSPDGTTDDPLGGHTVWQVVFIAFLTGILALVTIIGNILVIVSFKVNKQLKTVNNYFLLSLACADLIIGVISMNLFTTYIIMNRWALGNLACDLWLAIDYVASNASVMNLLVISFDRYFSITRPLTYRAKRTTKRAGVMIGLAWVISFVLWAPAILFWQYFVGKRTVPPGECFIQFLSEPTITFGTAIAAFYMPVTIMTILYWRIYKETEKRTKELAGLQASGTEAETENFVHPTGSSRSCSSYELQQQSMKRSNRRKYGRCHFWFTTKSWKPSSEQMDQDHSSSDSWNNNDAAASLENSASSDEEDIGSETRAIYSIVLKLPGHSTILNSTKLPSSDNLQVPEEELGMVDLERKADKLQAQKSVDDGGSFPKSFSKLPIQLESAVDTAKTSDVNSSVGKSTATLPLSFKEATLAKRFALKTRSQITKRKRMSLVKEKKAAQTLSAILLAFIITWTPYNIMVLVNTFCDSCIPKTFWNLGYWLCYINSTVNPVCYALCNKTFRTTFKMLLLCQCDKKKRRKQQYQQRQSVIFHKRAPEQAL

[16] = biological target: Cytochrome P450 2C9 (Homo sapiens, UniProt P11712); experiment: Inhibition of CPY2C9
Chain of Cytochrome P450 2C9 (P11712 whole entry): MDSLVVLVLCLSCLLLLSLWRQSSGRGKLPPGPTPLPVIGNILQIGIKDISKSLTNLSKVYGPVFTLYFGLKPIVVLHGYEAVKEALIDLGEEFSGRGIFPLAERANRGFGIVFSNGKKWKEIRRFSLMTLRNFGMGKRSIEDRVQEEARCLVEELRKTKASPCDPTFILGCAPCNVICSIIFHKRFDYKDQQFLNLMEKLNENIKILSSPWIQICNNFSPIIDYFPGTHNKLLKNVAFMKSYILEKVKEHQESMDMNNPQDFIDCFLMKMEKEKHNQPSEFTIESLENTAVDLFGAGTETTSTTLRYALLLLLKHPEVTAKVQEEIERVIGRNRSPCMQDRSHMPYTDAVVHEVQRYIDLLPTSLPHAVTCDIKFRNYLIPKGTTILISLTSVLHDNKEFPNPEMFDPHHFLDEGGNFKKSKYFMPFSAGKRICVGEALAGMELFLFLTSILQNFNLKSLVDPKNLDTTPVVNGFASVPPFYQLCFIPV

[17] = biological target: T2, Muscarinic acetylcholine receptor M1 (Homo sapiens); experiment: Antagonist activity at human muscarinic M1 receptor expressed in CHO cells assessed as inhibition of acetylcholine-induced calcium mobilization at 30 uM measured after 15 mins by fluorescence analysis; format: functional, cell-based; set-up: scale not given: the % may be the effect or the level left

O=C(C1CN(S(=O)(=O)c2cccc3cnccc23)C1)N1CC2CN(c3ccncc3)CC2C1 (configuration not stated)
clearance [1]: 68.6 mL/min/kg
IC50 [2]: > 10 µM
Activity [3]: Active
IC50 [4]: > 30 µM
Fu [5]: 0.08%
IC50 [6]: > 10 µM
Activity [7]: Active
Fu [8]: 0.9%
IC50 [9]: < 2.5 µM
inhibition [10]: Dose-dependent effect
IC50 [11]: 0.23 µM
IC50 [12]: > 10 µM
Fu [13]: 0.6%
IC50 [14]: < 2.5 µM
IC50 [15]: > 10 µM
IC50 [16]: < 2.5 µM
Activity [17]: 2.8%
